Data set [1] relates to four human tumour cell lines (MM96, HeLa, CI-80-13S, HeLa-S1a). Briefly: cytotoxicity against four human tumour cell lines in vitro (FIGS. 3 and 4). Type of data set: cell-based. An excerpt: (§1) The origins of the human melanoma cell line MM96 has been described in Whitehead et al., 1973, Pigment Cell 1 383-389. The cell line JAM is described in Ward et al., 1987, Cancer Res. 47 2662-2667. The origin of the ovarian tumour line CI-80-13S has been described in Bertoncello et al., 1985, Aust. J. Exp. Biol. Med. Sci. 63 241-243. The origin of the cervical carcinoma cell line HeLa has been described in Maynard et al., 1986, Cancer Res. 46 5009-5093. The subclone HeLa-S1a was derived by stably transfecting HeLa with PAI-2 cDNA described in Schleuning et al., 1987, Mol. Cell. Biol. 7 4564-4567 in the sense orientation under the control of the cyto-megalovirus (CMV) promoter. The stably infected subclone was isolated following G418 selection and expression of the PAI-2 transgene characterised by immunoblot analysis and quantitated by ELISA. All of these cell lines have been used before for carrying out cell survival assays referred to in FIGS. 1-4. Cells were cultured at 37° in 5% CO2 /air in Roswell Park Memorial Institute medium 1640 containing 5% foetal calf serum, 100 μg/ml streptomycin, 100 IU/ml penicillin, 1 mM pyruvate, 50 μM nicotinamide and 3 mM HEPES.
(§2) Cells were seeded in microtitre plates (lowest number for fastest growing cells: 1000 HeLa, 2000 MM96, […] CI-80-13S cells per 6 mm well in 100 μl), normally but not necessarily allowed to attach overnight, then 5 dilutions of the drug were added to duplicate wells. After an overnight incubation to equilibrate the pH, the lids were quickly taped around the edge to prevent evaporation. The plates were incubated for 5-7 days, until the controls were nearly confluent. Cell growth/morphology was scored at each dose visually (inverted microscope). The medium was then replaced by 50 μl fresh medium containing 2 u/Ci/ml [methyl-3H]-thymidine (5 Ci/mmol; Radiochemical Centre, Amersham, Bucks., U.K.) and incubated for 2-4 hr. The cells were washed with PBS (0.1 M NaCl, 50 mM phosphate, pH 7.2), detached with 100 μl of PBS containing 0.2 mg/ml trypsin and 10 mM EDTA, and washed onto a glass fibre GF/a filter mat with water using a cell harvester. Later, wells were checked under the microscope to ensure complete detachment and washout. Radioactivity was determined in an LKB Beta Plate counter and the results plotted as log % control cpm versus dose. The ID50 (dose required to give 50% survival) was interpolated from this survival curve.
We have tested the following compounds of formula (III) against the four human tumour cell lines described above, i.e.: […]

In another data set the test system is CI-80-13S. Briefly: cell survival after drug treatment ([methyl-3H]-thymidine). Type of data set: cell-based, human.
Source text: (§3) In FIGS. 1-4 and Table 1, reference is made to the cell lines HeLa, HeLa-S1a, JAM, CI-80-13S and MM96.
as §1, §2

Another data set concerns HeLa-S1a. The data set is described as above. Type of data set: cell-based, human.
Source text: as §3, §1, §2

The subject of another data set is HeLa. The data set is described as above. Type of data set: cell-based, human.
Source text: as §3, §1, §2

For the next data set, the system named is MM96. The description is as above. Type of data set: cell-based, human.
Source text: as §3, §1, §2

In another data set the test system is 41M-cisR. Briefly: cytotoxicity assay, sulforhodamine B. The data set is classed as cell-based, human. To be noted: 96 hrs, mean ± SD or individual values when n<3. Here is the method: (§4) In Table 2, reference is made to cell lines 41M, 41M-cisR, SKOV-3, CH1 and CH1-cisR.
(§5) J. Cancer 69 1-7. The characteristics of the cell line pairs CH1/CH1 cisR, 41M/41McisR and 41M/SKOV3 are described in Table 3.
(§6) The cytotoxicity assay used sulforhodamine B which stains the basic amino acids. Cells (5000 or 2500 for SKOV-3) were seeded into 96 well microtitre plates (Linbro, Flow Laboratories Inc., USA) in 0.1 ml of medium. After an overnight incubation, the metal phosphine compounds were dissolved in 0.9% NaCl or ethanol and diluted with medium, were added at concentrations ranging from 0.005 to 50 μM to quadruplicate wells. After 96 hrs incubation, the medium was removed and cells were fixed in 0.2 ml of cold 10% (w/v) trichloroacetic acid (May & Baker Ltd., Dagenham, England) for 30 mins at 4° C. The plates were washed five times with tap water. Then 0.1 ml of 0.4% (w/v) sulforhodamine B (Sigma Chemical Co., St. Louis, USA) dissolved in 1% acetic acid (Ajax Chemicals, Australia) was added to the wells and left to stand at room temperature for 15 mins. The plates were then washed five times with 1% acetic acid and left to dry overnight. The next morning, 0.1 ml of 10 mM Tris buffer (Sigma Chemical Co., St. Louis, USA) was then added to each plate to solubilise the dye. Absorbance was read at a wavelength of 570 nm using a 96 well plate reader Dynatech MR 5000 plate reader. Absorbance of treatment cells was expressed as a percentage of positive (drug-free) controls. The results were plotted as percentage growth versus drug concentration.

For another data set, the system named is 41M. As to the kind of experiment: cytotoxicity assay, sulforhodamine B. Type of data set: cell-based, human. Particulars: 96 hrs, mean ± SD or individual values when n<3. Here is the method: as §4, §5, §6
The next data set has as its system CH1-cisR. As to the kind of experiment: cytotoxicity assay, sulforhodamine B. The data set is classed as cell-based, human. To be noted: 96 hrs, mean ± SD or individual values when n<3. Here is the method: as §4, §5, §6
For another data set, the system named is CH1. As to the kind of experiment: cytotoxicity assay, sulforhodamine B. The data set is classed as cell-based, human. To be noted: 96 hrs, mean ± SD or individual values when n<3. The method, then: as §4, §5, §6
The next data set relates to SKOV-3. Briefly: cytotoxicity assay, sulforhodamine B. Type of data set: cell-based, human. Particulars: 96 hrs, mean ± SD or individual values when n<3. Here is the method:
as §4, §5, §6

The subject of data set [2] is 41M, 41M-cisR, SKOV-3, CH1, CH1-cisR. Briefly: growth inhibition of cisplatin-sensitive and -resistant ovarian cancer cell lines (Table 2, FIG. 5). The data set is classed as cell-based, human.
Source text: (§7) The sensitive CH1 cell line was established from a patient with drug-sensitive disease and its resistant variant (CH1-cisR) was generated by prolonged in vitro exposure to cisplatin during which it acquired more efficient DNA repair as described in Kelland et al., 1992, Cancer Research 52 3857-3864. The sensitive 41M cell line was also established from a patient with a sensitive tumor and its resistant variant (41M-cisR) was generated in the same way but acquired decreased uptake across the cell membrane (Kelland et al., 1992, supra). The intrinsically-resistant SKOV-3 ovarian carcinoma cell line has high glutathione levels as described in Mistry et al., 1991, Brit. J. Cancer 64 215-220 and reduced levels of bi-functional cisplatin-DNA lesions as described in McKeage et al., 1994, Brit. J. Cancer 69 1-7. The characteristics of the cell line pairs CH1/CH1 cisR, 41M/41McisR and 41M/SKOV3 are described in Table 3.
as §6, with “concentration. The drug concentration resulting in a 50% growth inhibition was termed the IC50. The passage numbers used for the cytotoxicity assay from each cell line were, CH1 passages 50-58, CH1 cis-R passages 77-83, 41M passages 50-63, 41M cisR 81-92 and SKOV-3 passages 106-128.” for “concentration.”

Another data set deals with human tumour cell lines. Briefly: selectivity of cytotoxicity over all cell lines evaluated (Tables 1 and 2). The data set is classed as cell-based.
Source text: as §1, §2, §7
The cytotoxicity assay used sulforhodamine B which stains the basic amino acids. Cells (5000 or 2500 for SKOV-3) were seeded into 96 well microtitre plates (Linbro, Flow Laboratories Inc., USA) in 0.1 ml of medium. After an overnight incubation, the metal phosphine compounds were dissolved in 0.9% NaCl or ethanol and diluted with medium, were added at concentrations ranging from 0.005 to 50 μM to quadruplicate wells. After 96 hrs incubation, the medium was removed and cells were fixed in 0.2 ml of cold 10% (w/v) trichloroacetic acid (May & Baker Ltd., Dagenham, England) for 30 mins at 4° C. The plates were washed five times with tap water. […]

For data set [3], the system named is cisplatin cytotoxicity. To be noted: in vitro; cited from earlier work.
In data set [4] the test system is cisplatin cytotoxicity. Particulars: in vivo; cited from earlier work.

The values below come from patent US6218378A, “Anti-tumor agents comprising pyridyl-substituted metal-diphosphine complex” (priority 1994, dated 2001).

Structures are written as SMILES. Where two headings read alike, the source gives them in different places. A value given as a limit tells only on which side of the number the result lay.

The IC50 is the midpoint of a concentration-inhibition curve. High values mean weaker potency, low ones greater potency.

Consider `O=[N+]([O-])[O-].O=[N+]([O-])[O-].[Ag+].[Ag+].c1ccc(P(CCP(c2ccccn2)c2ccccn2)c2ccccn2)nc1.c1ccc(P(CCP(c2ccccn2)c2ccccn2)c2ccccn2)nc1.c1ccc(P(CCP(c2ccccn2)c2ccccn2)c2ccccn2)nc1.c1ccc(P(CCP(c2ccccn2)c2ccccn2)c2ccccn2)nc1` [[Ag2 (d2pype)4](NO3)2], for which the “cytotoxicity (FIGS. 3 and 4)” value in data set [1] (all four cell lines) is reported as “cytotoxic to all four cell lines”. Moreover, the “selectivity against the cisplatin-resistant lines” value in data set [1] (compared with formula (I) or (V), R=4-pyridyl and 3-pyridyl) is given as “do not show the same selectivity”.

In the case of `[Au+].[Au+].[Cl-].[Cl-].c1cncc(P(CCP(c2cccnc2)c2cccnc2)c2cccnc2)c1.c1cncc(P(CCP(c2cccnc2)c2cccnc2)c2cccnc2)c1` [[Au2 (d3pype)2 Cl2]], the “cytotoxicity (FIGS. 1 and 2)” value was “selectively cytotoxic” with CI-80-13S (CI-80-13S ovarian in vitro), “selectively cytotoxic” in the data set on HeLa-S1a (HeLa-S1a in vitro), “inactive” in the data set with HeLa (HeLa cervical carcinoma in vitro) and “inactive” in the data set with MM96 (MM96 melanoma in vitro). In addition, the IC50 in the data set on CI-80-13S (CI-80-13S, mean ± SD or individual values when n<3, 5-7 days) is 0.4 µM; in the data set on HeLa-S1a (HeLa-S1a, mean ± SD or individual values when n<3, 5-7 days), 0.4 µM; in the data set on HeLa (HeLa, mean ± SD or individual values when n<3, 5-7 days), 38 µM; in the data set on MM96 (MM96L, mean ± SD or individual values when n<3, 5-7 days) it was 56 µM; in the data set on 41M-cisR it was 47 µM; in the data set on 41M it was 70 ± 12 µM. The IC50 in the data set on CH1-cisR was determined as 0.5 ± 0.1 µM; in the data set with CH1 it was 0.9 ± 0.4 µM; in the data set with SKOV-3, 71 ± 12 µM. Further, the “sensitivity of cisplatin resistant cells versus non-resistant cells” value in data set [2] (41M/41M-cisR and CH1/CH1-cisR pairs) is “consistently more sensitive”.

In the case of `[Au+].[Cl-].c1ccc(P(CCP(c2ccccc2)c2ccccn2)c2ccccn2)cc1.c1ccc(P(CCP(c2ccccc2)c2ccccn2)c2ccccn2)cc1` (stereo not drawn) [[Au(2-pyppe)2]Cl], the half-inhibitory concentration (IC50) in the data set with 41M-cisR was 0.1 µM; in the data set with 41M, 0.1 µM; with SKOV-3, 0.2 µM. Further, the “number of cell lines against which cytotoxic” value with human tumour cell lines is on record as “cytotoxic to all the cell lines evaluated”. In addition, in the data set on human tumour cell lines (Tables 1 and 2), the degree of selectivity entry is “the least selectivity”. Further, the “selectivity and cytotoxicity in ovarian cancer cell-lines (FIG. 5)” value in data set [2] (96h incubation) is “cytotoxic to the 41M pair and the resistant SKOV-3”.

As for `Cl.c1cncc([P+]2(c3cccnc3)CC[P+](c3cccnc3)(c3cccnc3)[Au-3]23[P+](c2cccnc2)(c2cccnc2)CC[P+]3(c2cccnc2)c2cccnc2)c1` [[Au(d3pype)2]Cl], the IC50 in the data set on 41M-cisR was 11 µM; with 41M, over 25 µM; with CH1-cisR, 10 µM; with CH1, 1.5 µM; with SKOV-3, over 25 µM.

Consider `Cl.c1cncc([P+]2(c3cccnc3)CC[P+](c3cccnc3)(c3cccnc3)[Cu-3]23[P+](c2cccnc2)(c2cccnc2)CC[P+]3(c2cccnc2)c2cccnc2)c1` [[Cu(d3pype)2]Cl], for which the half-maximal inhibitory concentration (IC50) with 41M-cisR was 30 µM; in the data set on 41M it was over 50 µM; in the data set with CH1, 3 µM; in the data set on SKOV-3, over 50 µM.

As to `Cc1cc(N)c2ccccc2[n+]1CCCCCCCCCC[n+]1c(C)cc(N)c2ccccc21` [delqualinium], the “enhancement of cisplatin cytotoxicity” value in the data set on cisplatin cytotoxicity [3] and with cisplatin cytotoxicity [4] was “enhance cisplatin cytotoxicity” each time.
